“Also recorded” adds a separate entry of the source.
How the values were obtained:
lethal factor (LF) = lethal factor (LF) (Bacillus anthracis, UniProt P15917); test: biochemical; type: biochemical
[1] = test system: LF cleavage of MEK1 in HeLa cells; type: cell-based, Human
in vitro = details: microsomes
[2] = microsomes
[3] = test system: RAW 264.7 macrophages, LF/PA induced cell death; test: cells; type: cell-based, Murine; details: Mus musculus, RAW264.7, 4 h, read-out: EC50 (macrophage assay)
[4] = test system: Bacillus anthracis Sterne spores; design: species or system A/J mice; details: mouse, in vivo

Chain of lethal factor (LF) (P15917 34-809 limits assumed): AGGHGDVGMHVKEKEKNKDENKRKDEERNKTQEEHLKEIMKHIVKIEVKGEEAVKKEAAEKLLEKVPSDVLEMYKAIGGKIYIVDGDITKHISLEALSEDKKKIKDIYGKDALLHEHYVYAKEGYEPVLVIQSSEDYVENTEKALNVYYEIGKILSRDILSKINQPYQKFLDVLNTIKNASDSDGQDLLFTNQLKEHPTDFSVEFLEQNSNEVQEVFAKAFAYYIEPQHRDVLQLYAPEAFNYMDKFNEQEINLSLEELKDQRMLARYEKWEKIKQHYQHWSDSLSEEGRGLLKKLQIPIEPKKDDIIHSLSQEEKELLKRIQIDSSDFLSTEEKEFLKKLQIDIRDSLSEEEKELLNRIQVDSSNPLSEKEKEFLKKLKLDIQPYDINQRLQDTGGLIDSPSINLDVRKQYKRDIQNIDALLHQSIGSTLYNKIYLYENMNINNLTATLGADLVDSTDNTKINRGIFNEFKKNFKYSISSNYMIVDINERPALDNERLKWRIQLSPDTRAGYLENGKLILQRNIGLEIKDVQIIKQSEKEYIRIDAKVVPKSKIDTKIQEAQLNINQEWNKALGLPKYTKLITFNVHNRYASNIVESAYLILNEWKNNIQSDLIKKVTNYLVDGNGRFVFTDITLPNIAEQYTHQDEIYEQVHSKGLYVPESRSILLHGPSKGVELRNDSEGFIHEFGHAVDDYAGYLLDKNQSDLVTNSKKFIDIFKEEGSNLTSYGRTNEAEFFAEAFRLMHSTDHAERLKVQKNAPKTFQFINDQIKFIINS

| Structure (SMILES) | IC50 (lethal factor (LF)) [µM] | half-life (in vitro) [h] | Pampa | other results |
| --- | --- | --- | --- | --- |
| COc1ccc(-c2ccc(S(=O)(=O)Nc3sc4c(c3-c3nc5ccccc5s3)CCCC4)cc2)cc1 [Compound 105] | > 50 | – | – | – |
| CNC(=O)[C@H](Cc1c[nH]c2ccccc12)NC(=O)[C@@H](CC(=O)NO)CC(C)C [Inhibitor 1, Ilomastat] | – | – | – | protection of HeLa cells against LF cleavage of MEK1 [1]: effective |
| O=S(=O)(Nc1sccc1-c1nc2ccccc2s1)c1ccc2ncsc2c1 [Compound 92, N-(3-(benzo[d]thiazol-2-yl)thiophen-2-yl)benzo[d]thiazole-6-sulfonamide] | – | > 2 | High | Metabolic stability Hept. CLint [2]: t1/2= >120min CLint= 3.9 |
| Cc1csc(NS(=O)(=O)c2ccc([N+](=O)[O-])cc2)c1-c1nc2ccccc2s1 [Compound 17, N-(3-(benzo[d]thiazol-2-yl)-4-methylthiophen-2-yl)-4-nitrobenzenesulfonamide] | – | > 2 | High | Metabolic stability Hept. CLint [2]: t1/2= >120min CLint= 0.6 |
| Cc1cc(S(=O)(=O)N[C@H](C(=O)NO)C2CCOCC2)ccc1F [Compound 7] | – | – | – | protection of HeLa cells against LF cleavage of MEK1 [1]: effective |
| COc1ccc(-c2ccc(S(=O)(=O)Nc3sccc3-c3nc4ccccc4s3)cc2)cc1 [Compound 70] | – | > 2 | Low | EC50 [3]: 0.561 µM; protection of HeLa cells against LF cleavage of MEK1 [1]: effective; Metabolic stability Hept. CLint [2]: t1/2= >120min CLint= 3.6; survival of infected mice versus DMSO control [4]: a little more effective in protecting the mice; also recorded: best survival |
| O=S(=O)(Nc1sccc1-c1nc2ccccc2s1)c1ccc(-c2ccc(Cl)cc2)cc1 [Compound 71] | – | > 2 | Low | – |
| O=S(=O)(Nc1sccc1-c1nc2ccccc2s1)c1cc(OCC(F)(F)F)ccc1OCC(F)(F)F [Compound 56, N-(3-(benzo[d]thiazol-2-yl)thiopen-2-yl)-2,5-bis(2,2,2-trifluoroethoxy)benzenesulfonamide] | 39 | – | – | – |
| Cc1ccc(S(=O)(=O)Nc2sccc2-c2nc3ccccc3s2)cc1Cl [Compound 55, N-(3-(benzo[d]thiazol-2-yl)thiophen-2-yl)-3-chloro-4-methylbenzenesulfonamide] | – | > 2 | High | survival of infected mice versus DMSO control [4]: slight improvement in comparison to the control |
| O=S(=O)(Nc1sc2c(c1-c1nc3ccccc3s1)CCCC2)c1ccc(-c2ccc(Cl)cc2)cc1 [Compound 106] | > 50 | – | – | – |
| CSc1nccc(-c2ccc(S(=O)(=O)Nc3sccc3-c3nc4ccccc4s3)s2)n1 [Compound 99, N-(3-(benzo[d]thiazol-2-yl)thiophen-2-yl)-5-(2-(methylthio)pyrimidin-4-yl)thiophene-2-sulfonamide] | 18 | – | – | – |
| Nc1sccc1-c1nc2ccccc2s1 [Compound 42, reference compound] | – | – | – | inhibitory activity against LF (in words) (lethal factor (LF)): essentially inactive |

From article PMC2730741 (Bioorganic & medicinal chemistry, 2009)
